Measured values from article PMC11122421 (Marine Drugs, 2024).
Where “and” joins values, the source holds several entries; their conditions need not be identical. Identical values can stand only once. Where a SMILES comes first, the peptide text is derived from it. Bridges are numbered along the chain shown (N, C = ends). The star is where a group is joined. X2 = CN(C)c1ccc2c(-c3cc(C(=O)*)ccc3C(=O)[O-])c3ccc(=[N+](C)C)cc-3oc2c1; X1 = C[N+]1=C(/C=C/C=C2/N(CCCCCC(=O)*)c3ccccc3C2(C)C)C(C)(C)c2ccccc21; BODIPY(FL) = CC1=CC(C)=[N+]2C1=Cc1ccc(CCC(=O)*)n1[B-]2(F)F

Assays:
rat α7 nAChRs = target: T1, rat α7 nAChRs (Rattus norvegicus, UniProt Q05941); assay: cell-based; assay type: cell-based
T1 construct: expressed in transfected cells; host or cells: Xenopus laevis oocytes injected with cRNA; plasmids from J. Michael McIntosh (University of Utah)
T1 sequence (Q05941 23-502): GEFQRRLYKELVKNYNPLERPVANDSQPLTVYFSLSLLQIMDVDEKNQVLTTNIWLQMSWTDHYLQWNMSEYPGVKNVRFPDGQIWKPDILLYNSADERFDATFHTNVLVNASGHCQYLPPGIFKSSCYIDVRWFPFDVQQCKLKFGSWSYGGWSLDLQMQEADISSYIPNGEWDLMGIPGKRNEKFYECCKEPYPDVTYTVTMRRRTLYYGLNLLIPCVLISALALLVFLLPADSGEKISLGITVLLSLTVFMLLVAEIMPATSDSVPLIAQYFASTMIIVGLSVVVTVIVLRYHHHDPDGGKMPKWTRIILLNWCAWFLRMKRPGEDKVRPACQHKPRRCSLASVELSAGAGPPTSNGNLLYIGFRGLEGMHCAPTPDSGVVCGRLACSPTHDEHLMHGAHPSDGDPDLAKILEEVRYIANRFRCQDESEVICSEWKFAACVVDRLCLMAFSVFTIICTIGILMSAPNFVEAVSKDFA

rat α3β2 nAChR = target: T2, rat α3β2 nAChR (Rattus norvegicus, UniProt P04757+P12390); assay: cell-based
T2 construct: expressed in transfected cells; host or cells: Xenopus laevis oocytes injected with cRNA; plasmids from J. Michael McIntosh (University of Utah)
T2 sequence (P04757 26-499 limits assumed): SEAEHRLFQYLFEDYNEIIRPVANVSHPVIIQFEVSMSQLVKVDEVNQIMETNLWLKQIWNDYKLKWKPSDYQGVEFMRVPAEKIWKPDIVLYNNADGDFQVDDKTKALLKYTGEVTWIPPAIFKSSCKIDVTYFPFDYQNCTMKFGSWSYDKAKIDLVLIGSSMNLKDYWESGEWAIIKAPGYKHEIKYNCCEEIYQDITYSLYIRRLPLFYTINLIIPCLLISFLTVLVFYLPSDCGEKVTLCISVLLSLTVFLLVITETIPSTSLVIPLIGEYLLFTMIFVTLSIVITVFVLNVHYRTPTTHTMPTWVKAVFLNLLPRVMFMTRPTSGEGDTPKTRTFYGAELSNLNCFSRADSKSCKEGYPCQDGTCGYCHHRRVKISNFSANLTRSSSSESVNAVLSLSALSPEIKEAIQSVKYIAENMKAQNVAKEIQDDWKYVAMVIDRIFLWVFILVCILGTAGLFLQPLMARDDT
T2 sequence (P12390 25-500 limits assumed): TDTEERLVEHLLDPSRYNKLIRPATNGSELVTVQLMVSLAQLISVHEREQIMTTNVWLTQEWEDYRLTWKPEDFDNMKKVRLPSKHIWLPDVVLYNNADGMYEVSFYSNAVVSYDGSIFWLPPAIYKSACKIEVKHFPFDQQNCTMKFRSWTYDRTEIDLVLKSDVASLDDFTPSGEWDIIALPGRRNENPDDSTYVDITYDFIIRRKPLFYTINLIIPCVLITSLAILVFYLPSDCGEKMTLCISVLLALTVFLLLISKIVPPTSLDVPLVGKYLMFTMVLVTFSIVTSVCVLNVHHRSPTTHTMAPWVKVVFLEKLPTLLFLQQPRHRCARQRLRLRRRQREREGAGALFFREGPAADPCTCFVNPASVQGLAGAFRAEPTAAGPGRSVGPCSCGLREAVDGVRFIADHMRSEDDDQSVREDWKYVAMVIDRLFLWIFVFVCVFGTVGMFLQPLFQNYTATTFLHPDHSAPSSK

rat α6/α3β4 nAChRs = target: T3, rat α6/α3β4 nAChRs (Rattus norvegicus, UniProt P04757+P12392+P43143); assay type: cell-based
T3 construct: expressed in transfected cells; host or cells: Xenopus laevis oocytes injected with cRNA; plasmids from J. Michael McIntosh (University of Utah)
T3 sequence (P43143+P04757 fused with the stated changes): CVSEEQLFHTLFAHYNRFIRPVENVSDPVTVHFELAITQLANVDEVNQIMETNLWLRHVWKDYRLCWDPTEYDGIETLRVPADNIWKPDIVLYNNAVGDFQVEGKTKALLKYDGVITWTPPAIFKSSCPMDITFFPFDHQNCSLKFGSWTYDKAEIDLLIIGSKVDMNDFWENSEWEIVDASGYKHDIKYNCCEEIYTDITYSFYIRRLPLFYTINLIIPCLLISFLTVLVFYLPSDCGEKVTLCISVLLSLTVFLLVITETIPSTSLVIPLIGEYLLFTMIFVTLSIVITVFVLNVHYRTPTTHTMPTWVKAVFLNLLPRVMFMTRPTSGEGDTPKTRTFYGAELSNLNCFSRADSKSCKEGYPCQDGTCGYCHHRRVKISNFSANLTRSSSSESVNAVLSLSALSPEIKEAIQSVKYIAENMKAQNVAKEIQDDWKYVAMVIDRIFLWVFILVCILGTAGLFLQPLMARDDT
T3 sequence (P12392 21-495): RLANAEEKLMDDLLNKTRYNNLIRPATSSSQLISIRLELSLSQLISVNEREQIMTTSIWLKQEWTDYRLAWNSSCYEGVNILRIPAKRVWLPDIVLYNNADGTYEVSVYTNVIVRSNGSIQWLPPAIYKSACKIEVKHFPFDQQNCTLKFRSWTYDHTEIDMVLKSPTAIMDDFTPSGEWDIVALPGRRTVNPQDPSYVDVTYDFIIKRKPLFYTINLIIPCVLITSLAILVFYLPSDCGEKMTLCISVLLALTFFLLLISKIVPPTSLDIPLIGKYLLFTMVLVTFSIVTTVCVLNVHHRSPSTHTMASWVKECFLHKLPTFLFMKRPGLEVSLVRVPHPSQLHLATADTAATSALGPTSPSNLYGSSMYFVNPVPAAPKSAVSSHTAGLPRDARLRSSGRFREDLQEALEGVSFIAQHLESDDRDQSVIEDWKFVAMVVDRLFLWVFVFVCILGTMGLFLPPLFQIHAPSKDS

[1] = not given; remark: listed apart in the source
[2] = target: T4, α7 nAChRs in rat brain slices (Rattus norvegicus, UniProt Q05941)
T4 construct: from tissue; host or cells: frozen brain slices of ten-week-old rats (hippocampus, striatum, cortex, cerebellum)
T4 sequence (Q05941 23-502): as the sequence (Q05941 23-502) above

With `CC1=CC(C)=[N+]2C1=Cc1ccc(CCC(=O)NCC(=O)N[C@H]3CSSC[C@@H]4NC(=O)[C@@H]5CCCN5C(=O)[C@@H]5CCCN5C(=O)[C@H](CC(N)=O)NC(=O)[C@H](CO)NC(=O)[C@H](CSSC[C@@H](C(N)=O)NC(=O)[C@H](Cc5c[nH]cn5)NC(=O)[C@H](CCC(=O)O)NC(=O)[C@H](Cc5c[nH]cn5)NC(=O)[C@H](C)NC4=O)NC3=O)n1[B-]2(F)F` [LvIB-B] ({BODIPY(FL)}-GCCSNPPCAHEHC-NH2; disulfide 2-8, 3-13) the excitation wavelength (Ex) was 505 nm, the IC50 (rat α7 nAChRs) was 187 nM and the “inhibition rate of ACh-evoked current” value (rat α7 nAChRs) was 96 ± 0.11%. The inhibition rate (rat α3β2 nAChR) was 64 ± 4%, the IC50 (rat α3β2 nAChR) was 2550 nM and 10900 nM and the inhibition rate (rat α6/α3β4 nAChRs) was 0 ± 2%. It also gave an emission wavelength (Em) [1] of 510 nm.

With `C[C@@H]1NC(=O)[C@@H]2CSSC[C@H](NC(=O)CNC(=O)CCCCCN3/C(=C/C=C/C4=[N+](C)c5ccccc5C4(C)C)C(C)(C)c4ccccc43)C(=O)N[C@@H](CSSC[C@@H](C(N)=O)NC(=O)[C@H](Cc3c[nH]cn3)NC(=O)[C@H](CCC(=O)O)NC(=O)[C@H](Cc3c[nH]cn3)NC1=O)C(=O)N[C@@H](CO)C(=O)N[C@@H](CC(N)=O)C(=O)N1CCC[C@H]1C(=O)N1CCC[C@H]1C(=O)N2` [LvIB-C] (X1-GCCSNPPCAHEHC-NH2; disulfide 2-8, 3-13) the excitation wavelength (Ex) was 550 nm, the “Hill Slope” value (rat α7 nAChRs) was 1.39 (1.05–1.72) and the IC50 (rat α7 nAChRs) was 298 nM. For the same compound, the “inhibition rate of ACh-evoked current” value (rat α7 nAChRs) was 94 ± 0.20%, the “time to ~90% current restoration after block (recovery/washout)” value (rat α7 nAChRs) was at most 14 min and the inhibition rate (rat α3β2 nAChR) was 50 ± 2%. The IC50 (rat α3β2 nAChR) was 10900 nM and 2550 nM, the inhibition rate (rat α6/α3β4 nAChRs) was 10 ± 0.3% and the emission wavelength (Em) [1] was 570 nm. For the same compound, the “fluorescence labelling of brain regions” value [2] was “distinct fluorescence distribution in the hippocampus, striatum, and cortex”.

For `C[C@@H]1NC(=O)[C@@H]2CSSC[C@H](NC(=O)CNC(=O)c3ccc(C(=O)[O-])c(-c4c5ccc(=[N+](C)C)cc-5oc5cc(N(C)C)ccc45)c3)C(=O)N[C@@H](CSSC[C@@H](C(N)=O)NC(=O)[C@H](Cc3c[nH]cn3)NC(=O)[C@H](CCC(=O)O)NC(=O)[C@H](Cc3c[nH]cn3)NC1=O)C(=O)N[C@@H](CO)C(=O)N[C@@H](CC(N)=O)C(=O)N1CCC[C@H]1C(=O)N1CCC[C@H]1C(=O)N2` [LvIB-R] (X2-GCCSNPPCAHEHC-NH2; disulfide 2-8, 3-13), the excitation wavelength (Ex) was 555 nm, the “Hill Slope” value (rat α7 nAChRs) was 0.89 (0.67–1.14) and the IC50 (rat α7 nAChRs) was 643 nM. The “inhibition rate of ACh-evoked current” value (rat α7 nAChRs) was 87 ± 0.24%, the “time to ~90% current restoration after block (recovery/washout)” value (rat α7 nAChRs) was at most 14 min and the emission wavelength (Em) [1] was 580 nm. For the same compound, the “fluorescence labelling of brain regions” value [2] was “distinct fluorescence distribution in the hippocampus, striatum, and cortex”.
